Measured values taken from patent US12630536B2, “Cyanotriazine derivative, preparation method therefor, and application thereof” (Chengdu Fanxi Biopharma Co., LTD., priority 2020, dated 2026).

Legend:
[1] = system: TR alpha-UAS-bla HEK 293T Cells; assay: TR cell-based agonist detection, β-lactamase reporter (LiveBLAzer FRET B/G), TR alpha
Procedure: A method for testing a THR-α/β activation activity of a compound by an in-vitro cell level was as follows.
Compounds were transferred to a 384-well plate by an ECHO liquid workstation, and each compound was diluted by 3 times with 10 gradient concentrations, which was in triplicate. 1.5×10^4 DMEM-cultured cells (TR beta-UAS-bla HEK 293T Cells) or 1.0×10^4 TR alpha-UAS-bla HEK 293T Cells were placed in the 384-well plate. HEK 293T-TR beta was incubated in an incubator for 16 hours, and HEK 293T-TR alpha was incubated in an incubator for 24 hours. A LiveBLAzer™-FRET B/G (CCF4-AM) substrate was added into the cell plate to detect expression of β-lactamase in cells, and under excitation of 409 nm, a product produced fluorescence with a wavelength of 447 nm. When the β-lactamase was not expressed, under excitation of 409 nm, fluorescence with a wavelength of 520 nm was directly produced through FRET. Combination between the compound and the protein was determined by detecting a ratio of the two kinds of fluorescence (blue/green, 460 nm/530 nm), thus calculating EC50 of the compound. […] Calculation of a factor Z (greater than 0.5) would be used for monitoring a stability of each experiment.

[2] = system: golden hamsters fed with high-fat feedstuffs (hyperlipidemia model); assay: In-vivo pharmacodynamic test, high-fat feed hyperlipidemia model; details: oral once per day, 4 weeks
Procedure: Administration mode: oral administration was carried out once per day with a time interval of 24 hours for 4 consecutive weeks. During the experiment, the animals were weighed twice per week, and a remaining amount and an adding amount of the feedstuffs were recorded before each blood sampling detection for calculating a food intake of each group of animals during administration.
The food utilization rate represents a weight gain in gram of an animal taking per 100 g of feedstuffs, so that food utilization rate=weight gain (g)/food intake (100 g)×100%.

## Cn1cnc2ccc(Oc3c(Br)cc(-n4nc(C#N)c(=O)[nH]c4=O)cc3Br)cc21 [Compound 1, 2-(3,5-dibromo-4-((1-methyl-1H-benzo[d]imidazol-6-yl)oxy)phenyl)-3,5-dioxo-2,3,4,5-tetra hydro-1,2,4-triazine-6-carbonitrile]
[1]; Homo sapiens, HEK-293T, 24 h, TR_cell-based agonist, TR_α, read-out: Maximum activity ratio
  Emax: 205%
[1]; Homo sapiens, Detection of TR_cell-based agonist, HEK 293T-TR alpha, 24 hours, read-out: TR_α_EC50
  EC50: 4.32 µM
[1]; TR_cell-based agonist, TR_α, maximum relative to T3
  Test cpd/T3 (maximum ratio): 93.2%
[2]
  food utilization rate (weight gain (g)/food intake (100 g)×100%): reduced significantly
[2]; 5 and 15 mg/kg, compared with the model group
  level of triglyceride in blood (TG): significantly reduces
